Results as given in paper PMC9775177, “NLRP3-Inflammasome Inhibition with IZD334 Does Not Reduce Cardiac Damage in a Pig Model of Myocardial Infarction” (Biomedicines, 2022).
“And” between values parts separate entries of the source, which are not always exact repeats. Identical values can stand only once. Like-named read-outs stand apart in the source and are kept apart here.

Experiments:
[1] = tested on: pig model of myocardial infarction; conditions: for 0 Min HR (bpm) / 30 Min MAP (mmHg) / 60 Min HR (bpm) / 90 Min MAP (mmHg) / 120 Min HR (bpm) / 150 Min MAP (mmHg): time after induction of MI
Description: All animal experiments and analyses were performed in a blinded, randomized fashion. […] Fifteen minutes before reperfusion, pigs were randomly assigned to IV treatment with either placebo (40 mL PBS) or a 10 mg/kg IZD334 loading dose (dissolved in 40 mL PBS) infusion for 30 min. After the first dose of IZD334, pigs were randomly assigned to three oral treatment regimens (1 mg/kg, 3 mg/kg, and 10 mg/kg). Dosing was based on in vivo pharmacokinetic findings in healthy pigs. The control (PBS) group received an oral placebo. Oral treatment was continued for six days. All pigs underwent transthoracic and three-dimensional transesophageal echocardiography before induction of ischemia and after 7 days. Furthermore, on day 7, cardiac magnetic resonance (CMR) imaging was performed. Subsequently, the LAD was occluded at the exact same site as during infarct induction. After verification of complete vessel occlusion, Evans Blue (E2129, Sigma-Aldrich, St. Louis, MO, USA) solution was infused in the left and right coronary arteries in order to assess the area at risk (AAR). Animals were sacrificed by exsanguination under anesthesia. […] Each slice was photographed at the basal and apical side with a ruler and analyzed with ImageJ software (NIH, Bethesda, MD, USA).

NLRP3-inflammasome = test: In vitro stimulation of porcine whole blood with LPS and ATP, IL-1β release; format: cell-based
Description: To confirm the ability of IZD334 to effectively attenuate porcine NLRP3-inflammasome signaling, we used a previously standardized study protocol. In short, porcine peripheral blood mononuclear cells (PBMCs) were isolated from healthy porcine animals. Whole blood samples and isolated PBMCs were stimulated with lipopolysaccharide (LPS) (1 µg/mL, L4516, Sigma-Aldrich, St. Louis, MO, USA) and increasing concentrations of IZD334. After three h of incubation, 5 mM adenosine triphosphate (ATP) (A1852, Sigma-Aldrich, St. Louis, MO, USA) was added for 1 h to induce inflammasome activation. IL-1β release was measured in the supernatant with a Luminex Immunoasssay specific for porcine IL-1β (EPX01A-66048-901, ProcartaTM Simplex, eBioscience, ThermoFisher, San Diego, CA, USA).
In short, porcine peripheral blood mononuclear cells (PBMCs) were isolated from healthy porcine animals using Ficoll density-gradient centrifugation. Whole blood samples and isolated PBMCs were stimulated with lipopolysaccharide (LPS) (1 µg/mL, L4516, Sigma-Aldrich, St. Louis, MO, USA) and increasing concentrations of IZD334 (top concentration of 10 µM with an 8-point half-log dilution). After three h of incubation, 5 mM adenosine triphosphate (ATP) (A1852, Sigma-Aldrich, St. Louis, MO, USA) was added for 1 h to induce inflammasome activation. IL-1β release was measured in the supernatant with a Luminex Immunoasssay specific for porcine IL-1β (ProcartaTM Simplex, eBioscience, San Diego, CA, USA).

[2] = tested on: pig model of myocardial infarction; test: In vivo MI study: serological and histological read-outs; set-up: species or system pigs; conditions: 1, 3, 10 mg/kg groups
Description: Circulating leukocyte numbers at different time points after reperfusion were measured by whole-blood analysis using an automated hematological cell-counter (Cell-Dyn Sapphire, Abbott, Santa Clara, CA, USA). Plasma samples were obtained by whole-blood centrifugation at 1850× g and were immediately stored at −80 °C. C-reactive protein (CRP) levels were measured using solid phase DuoSet sandwich ELISA (DY1707, R&D Systems, Minneapolis, MN, USA) according to the manufacturer’s protocol. Troponin I levels were measured using a clinical chemistry analyzer (AU5811, Beckman Coulter, Woerden, The Netherlands). Histological analysis of collagen, myocardial immune cells, neutrophils, and monocyte infiltration is described in the Appendix A.
Infarcted and border zoned myocardial tissues were collected, and protein was isolated using a Roche protein isolation kit (cOmplete™ Lysis-M EDTA-free, Roche, Basel, Switzerland). IL-1β protein was measured with a Luminex Immunoassay specific for pig IL-1β (ProcartaPlex Pig IL-1β simplex Cat# EXP01A-66048-901 Invitrogen, Thermo Fisher Scientific, MA, USA) and corrected for total protein. For further histological analysis, infarcted and BZ myocardial tissue was processed, paraffin-imbedded, and cut into 5 µm sections after being conserved in 4% paraformaldehyde for 7 days. Cell nuclei were stained using hematoxylin, and area of cell infiltration was counted for each pig in 5 regions close to fibrotic areas in the infarct zone using Olympus CellSens software. Collagen was visualized using Picosirus Red staining (Abcam). The percentage of collagen was quantified using ImageJ software (1.47v).
Neutrophil infiltration in myocardial tissue was quantified in paraffin-embedded histological biopsies that were conserved in 4% formaldehyde for at least 7 days with a monoclonal mouse antibody against porcine neutrophils (Clone PM1, BMA Biomedicals, Augst, Switzerland) for 60 min and secondary incubation with Brightvision Poly-AP-anti-mouse (ImmunoLogic, Duiven, The Netherlands) for 30 min followed by development with liquid permanent red.
Monocyte infiltration was quantified in histological slides of myocardial tissue (paraffin and fresh frozen slides, respectively) using a monoclonal mouse anti-pig antibody against CD107a (Clone JM2E5, Bio-Rad, Kidlington, UK) or a mouse monoclonal antibody against CD14 (Ab23919, Abcam, Cambridge, UK); 60 min of incubation was followed by Brightvision Poly-AP-anti-mouse (ImmunoLogic, Duiven, The Netherlands) for 30 min and development with liquid permanent red.

[3] = tested on: pig model of myocardial infarction; test: In vivo MI study: infarct size by Evans Blue TTC double staining; conditions: 10 mg/kg IV loading dose, 7 days after MI
Description: All animal experiments and analyses were performed in a blinded, randomized fashion. Thirty female pigs were subjected to closed-chest LAD coronary artery balloon occlusion for 75 min followed by 7 days of reperfusion. […] The control (PBS) group received an oral placebo. Oral treatment was continued for six days. All pigs underwent transthoracic and three-dimensional transesophageal echocardiography before induction of ischemia and after 7 days. Furthermore, on day 7, cardiac magnetic resonance (CMR) imaging was performed. Subsequently, the LAD was occluded at the exact same site as during infarct induction. After verification of complete vessel occlusion, Evans Blue (E2129, Sigma-Aldrich, St. Louis, MO, USA) solution was infused in the left and right coronary arteries in order to assess the area at risk (AAR). Animals were sacrificed by exsanguination under anesthesia. The heart was excised, cut into 5 slices, and incubated in 1% 2,3,5-triphenyltetrazolium chloride (TTC) (1.08380, Sigma-Aldrich, St. Louis, MO, USA) in 37 degrees 0.9% NaCl for 15 min to discriminate between infarct tissue and viable myocardium. Each slice was photographed at the basal and apical side with a ruler and analyzed with ImageJ software (NIH, Bethesda, MD, USA).

[4] = IZD334 plasma concentrations in pigs subjected to MI; format: in vivo
Description: Oral treatment was continued for six days. […] Animals were sacrificed by exsanguination under anesthesia.
In vivo IZD334 concentrations were measured in plasma samples using mass-spectrometry. IZD334 content was quantified using positive ionization mode and multiple reaction monitoring on a Sciex API 5500 Mass spectrometer (MRM transition: 392.0 > 176.1).

[5] = infarct tissue, 7 days after MI
[6] = myocardial tissue, 7 days after MI
[7] = then 1 mg/kg oral once daily, n = 6
[8] = then 3 mg/kg oral once daily, n = 6
[9] = then 10 mg/kg oral once daily, n = 7

## CCN1CCC(S(=O)(=O)[N-]C(=O)Nc2c3c(cc4c2CCC4)CCC3)CC1.[K+] [IZD334]
[1]; 1 mg/kg group, n = 6
  0 Min HR (bpm): 70 ± 12 bpm
  30 Min MAP (mmHg): 85 ± 7 mmHg
  60 Min HR (bpm): 68 ± 9 bpm
  90 Min MAP (mmHg): 71 ± 12 mmHg
  120 Min HR (bpm): 67 ± 8 bpm
  150 Min MAP (mmHg): 79 ± 11 mmHg
[1]; 3 mg/kg group, n = 7
  0 Min HR (bpm): 74 ± 4 bpm
  30 Min MAP (mmHg): 74 ± 13 mmHg
  60 Min HR (bpm): 72 ± 11 bpm
  90 Min MAP (mmHg): 58 ± 20 mmHg
  120 Min HR (bpm): 61 ± 7 bpm
  150 Min MAP (mmHg): 70 ± 23 mmHg
[1]; 10 mg/kg group, n = 7
  0 Min HR (bpm): 73 ± 11 bpm
  30 Min MAP (mmHg): 72 ± 12 mmHg
  60 Min HR (bpm): 70 ± 11 bpm
  90 Min MAP (mmHg): 56 ± 19 mmHg
  120 Min HR (bpm): 62 ± 7 bpm
  150 Min MAP (mmHg): 62 ± 15 mmHg
[1]; first 2.5 h after induction of MI and subsequent compound administration, all dose groups
  Heart rate and mean arterial blood pressure versus placebo: similar
[1]; low-dose (1 mg/kg) group, presumably due to late VF, also one animal in the placebo group
  pigs that died one day after infarct induction: one animal
NLRP3-inflammasome; porcine whole blood assay
  performance in whole blood assay compared with MCC950: performs as well as MCC950
NLRP3-inflammasome; porcine whole blood, LPS 1 µg/mL 3 h, then 5 mM ATP 1 h, read-out: half maximal inhibitory concentration (IC50), IL-1β release
  IC50: 350 nM
NLRP3-inflammasome; porcine whole blood, LPS + ATP, basis of log not printed (fits nM)
  LogIC50, whole blood stimulation: 2.545
[2]; any time point during 7-day follow-up
  CRP levels versus placebo: No significant difference
[2]; 7-day follow-up
  Systemic troponin I levels versus placebo: trends were similar between the treatment groups
[2]; circulating, 7-day follow-up
  Total leukocyte numbers versus placebo: did not differ between groups
  neutrophil counts versus placebo: did not differ between groups
[2]; infarct and border zone, 7 days after MI
  Intra-myocardial IL-1β levels versus placebo: without any difference among treatment arms
[2]; [5]
  collagen formation (histology) versus placebo: no differences between the groups
  total myocardial immune cell infiltration (histology) versus placebo: no differences between the groups
[2]; [6]
  monocyte infiltration (histology) versus placebo: no differences between the groups
  neutrophil infiltration (histology) versus placebo: no differences between the groups
[3]; [7]
  AAR/LV ± SD: 23.5 ± 3.2%
  IS/AAR ± SD: 75.5 ± 7.3% and 75.5%
  IS/LV ± SD: 17.7 ± 6.3%
[3]; [8]
  AAR/LV ± SD: 26.0 ± 1.9%
  IS/AAR ± SD: 80.3 ± 3.9%
[3]; then 3 mg/kg oral once daily, n = 7
  IS/LV ± SD: 20.5 ± 2.2%
[3]; [9]
  AAR/LV ± SD: 26.4 ± 6.6%
  IS/AAR ± SD: 78.2 ± 8.0% and 78.2%
  IS/LV ± SD: 19.3 ± 2.9%
[4]; 1 mg/kg group (10 mg/kg IV loading dose), Reperfusion + 4 h, n = 6
  Concentration (ng/mL) Mean: 13,192 ng/mL
[4]; 1 mg/kg oral once daily group, Day 1, n = 6
  Concentration (ng/mL) Mean: 1434 ng/mL
[4]; 1 mg/kg oral once daily group, Day 2, n = 6
  Concentration (ng/mL) Mean: 795 ng/mL
[4]; 1 mg/kg oral once daily group, Day 3, n = 6
  Concentration (ng/mL) Mean: 555 ng/mL
[4]; 1 mg/kg oral once daily group, Day 7, n = 6
  Concentration (ng/mL) Mean: 44 ng/mL
[4]; 3 mg/kg group (10 mg/kg IV loading dose), Reperfusion + 4 h, n = 7
  Concentration (ng/mL) Mean: 11,992 ng/mL
[4]; 3 mg/kg oral once daily group, Day 1, n = 7
  Concentration (ng/mL) Mean: 2090 ng/mL
[4]; 3 mg/kg oral once daily group, Day 2, n = 7
  Concentration (ng/mL) Mean: 1501 ng/mL
[4]; 3 mg/kg oral once daily group, Day 3, n = 7
  Concentration (ng/mL) Mean: 1190 ng/mL
[4]; 3 mg/kg oral once daily group, Day 7, n = 7
  Concentration (ng/mL) Mean: 120 ng/mL
[4]; 10 mg/kg group (10 mg/kg IV loading dose), Reperfusion + 4, n = 7
  Concentration (ng/mL) Mean: 12,312 ng/mL
[4]; 10 mg/kg oral once daily group, Day 1, n = 7
  Concentration (ng/mL) Mean: 4522 ng/mL
[4]; 10 mg/kg oral once daily group, Day 2, n = 7
  Concentration (ng/mL) Mean: 4213 ng/mL
[4]; 10 mg/kg oral once daily group, Day 3, n = 7
  Concentration (ng/mL) Mean: 3887 ng/mL
[4]; 10 mg/kg oral once daily group, Day 7, n = 7
  Concentration (ng/mL) Mean: 233 ng/mL
